Test results as given in US8247211B2, “Glycopeptide antibiotics” (American Cyanamid Company, priority 2001, dated 2012).
In brackets after ≈: the same amount, converted by molar mass.

Legend:
Assay in all cases: In vitro antibacterial evaluation: minimum inhibitory concentration (MIC), broth dilution method
Assay type in all cases: cell-based
Staphylococcus sp. = tested on: Staphylococcus sp.
How it was run: (§1)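 Test strains, among them recent clinical isolates carrying methicillin, penicillin and/or vancomycin resistance, were inoculated at 5×10^5 CFU/mL. A broth dilution series spanning 64-0.06 μg/mL in Muller-Hinton II […] (NCCLS M7-A2) defined the MIC as the lowest growth-inhibiting concentration.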

Escherichia coli = conditions: 18 hours at 35° C.
How it was run: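 Broth dilution per NCCLS M7-A2 in Muller-Hinton II […], inoculum 5×10^5 CFU/mL, antibiotic tested over 64-0.06 μg/mL. MIC is taken as the lowest concentration that inhibits growth. Panel includes recent clinical isolates resistant to methicillin, penicillin and/or vancomycin.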

Enterococcus sp. = conditions: 18 hours at 35° C.
How it was run: as §1

Streptococcus sp. = conditions: 18 hours at 35° C.
How it was run: as §1

[1] = broth dilution, inoculum 5×10^5 CFU/mL

MIC Staphylococcus aureus (ATCC 29213) (Staphylococcus sp.; strain ATCC 29213): 0.5 µg/mL (≈ 0.35 µM)
MIC Staphylococcus aureus (GC 1131) (Staphylococcus sp.; strain GC 1131): 0.5 µg/mL (≈ 0.35 µM)
MIC Staphylococcus aureus (GC 3051) (Staphylococcus sp.; strain GC 3051): 0.5 µg/mL (≈ 0.35 µM)
MIC Staphylococcus aureus (GC 3053) (Staphylococcus sp.; strain GC 3053): 1 µg/mL (≈ 0.7 µM)
MIC Staphylococcus aureus (GC 4541) (Staphylococcus sp.; strain GC 4541): 0.5 µg/mL (≈ 0.35 µM)
MIC Staphylococcus aureus (GC 4542) (Staphylococcus sp.; strain GC 4542): 0.5 µg/mL (≈ 0.35 µM)
MIC Staphylococcus aureus-SMITH (GC 4543) (Staphylococcus sp.; strain GC 4543): <0.12 µg/mL
MIC Staphylococcus aureus (GC 4544) (Staphylococcus sp.; strain GC 4544): 0.5 µg/mL (≈ 0.35 µM)
MIC Staphylococcus aureus (GC 4545) (Staphylococcus sp.; strain GC 4545): 1 µg/mL (≈ 0.7 µM)
MIC Coagulase Negative Staphylococcus (GC 4547) (Staphylococcus sp.; strain GC 4547): 0.5 µg/mL (≈ 0.35 µM)
MIC Coagulase Negative Staphylococcus (GC 4548) (Staphylococcus sp.; strain GC 4548): 0.5 µg/mL (≈ 0.35 µM)
MIC Coagulase Negative Staphylococcus (GC 4549) (Staphylococcus sp.; strain GC 4549): <0.12 µg/mL
MIC Coagulase Negative Staphylococcus (GC 4551) (Staphylococcus sp.; strain GC 4551): 0.5 µg/mL (≈ 0.35 µM)
MIC Escherichia coli (ATCC 25922) (Escherichia coli; Escherichia coli (ATCC 25922)): 32 µg/mL (≈ 22.4 µM)
MIC Escherichia coli (GC 4559) (Escherichia coli; Escherichia coli (GC 4559)): 32 µg/mL (≈ 22.4 µM)
MIC Escherichia coli (GC 4560) (Escherichia coli; Escherichia coli (GC 4560)): 1 µg/mL (≈ 0.7 µM)
MIC Enterococcus avium (GC 4558) (Enterococcus sp.; Enterococcus avium (GC 4558)): 0.5 µg/mL (≈ 0.35 µM)
MIC Enterococcus faecalis (ATCC 29212) (Enterococcus sp.; Enterococcus faecalis (ATCC 29212)): 0.5 µg/mL (≈ 0.35 µM)
MIC Enterococcus faecalis (GC 2242) (Enterococcus sp.; Enterococcus faecalis (GC 2242)): 1 µg/mL (≈ 0.7 µM)
MIC Enterococcus faecalis (GC 2691) (Enterococcus sp.; Enterococcus faecalis (GC 2691)): 1 µg/mL (≈ 0.7 µM)
MIC Enterococcus faecalis (GC 3059) (Enterococcus sp.; Enterococcus faecalis (GC 3059)): 1 µg/mL (≈ 0.7 µM)
MIC Enterococcus faecalis (GC 4552) (Enterococcus sp.; Enterococcus faecalis (GC 4552)): 1 µg/mL (≈ 0.7 µM)
MIC Enterococcus faecalis (GC 4553) (Enterococcus sp.; Enterococcus faecalis (GC 4553)): 0.5 µg/mL (≈ 0.35 µM)
MIC Enterococcus faecalis (GC 4554) (Enterococcus sp.; Enterococcus faecalis (GC 4554)): 1 µg/mL (≈ 0.7 µM)
MIC Enterococcus faecalis (GC 6189) (Enterococcus sp.; Enterococcus faecalis (GC 6189)): 1 µg/mL (≈ 0.7 µM)
MIC Enterococcus faecium (GC 2243) (Enterococcus sp.; Enterococcus faecium (GC 2243)): 0.5 µg/mL (≈ 0.35 µM)
MIC Enterococcus faecium (GC 4556) (Enterococcus sp.; Enterococcus faecium (GC 4556)): 1 µg/mL (≈ 0.7 µM)
MIC Enterococcus faecium (GC 4557) (Enterococcus sp.; Enterococcus faecium (GC 4557)): 0.5 µg/mL (≈ 0.35 µM)
MIC Enterococcus avium (GC 4558) (Enterococcus sp.; [1]): 0.5 µg/mL (≈ 0.35 µM)
MIC Enterococcus faecalis (ATCC 29212) (Enterococcus sp.; [1]): 0.5 µg/mL (≈ 0.35 µM)
MIC Enterococcus faecalis (GC 2242) (Enterococcus sp.; [1]): 1 µg/mL (≈ 0.7 µM)
MIC Enterococcus faecalis (GC 2691) (Enterococcus sp.; [1]): 1 µg/mL (≈ 0.7 µM)
MIC Enterococcus faecalis (GC 3059) (Enterococcus sp.; [1]): 1 µg/mL (≈ 0.7 µM)
MIC Enterococcus faecalis (GC 4552) (Enterococcus sp.; [1]): 1 µg/mL (≈ 0.7 µM)
MIC Enterococcus faecalis (GC 4553) (Enterococcus sp.; [1]): 0.5 µg/mL (≈ 0.35 µM)
MIC Enterococcus faecalis (GC 4554) (Enterococcus sp.; [1]): 1 µg/mL (≈ 0.7 µM)
MIC Enterococcus faecalis (GC 6189) (Enterococcus sp.; [1]): 1 µg/mL (≈ 0.7 µM)
MIC Enterococcus faecium (GC 2243) (Enterococcus sp.; [1]): 0.5 µg/mL (≈ 0.35 µM)
MIC Enterococcus faecium (GC 4556) (Enterococcus sp.; [1]): 1 µg/mL (≈ 0.7 µM)
MIC Enterococcus faecium (GC 4557) (Enterococcus sp.; [1]): 0.5 µg/mL (≈ 0.35 µM)
MIC Streptococcus agalactiae (GC 4564) (Streptococcus sp.; Streptococcus agalactiae (GC 4564)): <0.12 µg/mL
MIC Streptococcus pneumoniae (ATCC 6301) (Streptococcus sp.; Streptococcus pneumoniae (ATCC 6301)): <0.12 µg/mL
MIC Streptococcus pneumoniae (GC 1894) (Streptococcus sp.; Streptococcus pneumoniae (GC 1894)): <0.12 µg/mL
MIC Streptococcus pneumoniae (GC 4565) (Streptococcus sp.; Streptococcus pneumoniae (GC 4565)): <0.12 µg/mL
MIC Streptococcus pyogenes (GC 4563) (Streptococcus sp.; Streptococcus pyogenes (GC 4563)): <0.12 µg/mL
MIC Streptococcus agalactiae (GC 4564) (Streptococcus sp.; [1]): <0.12 µg/mL
MIC Streptococcus pneumoniae (ATCC 6301) (Streptococcus sp.; [1]): <0.12 µg/mL
MIC Streptococcus pneumoniae (GC 1894) (Streptococcus sp.; [1]): <0.12 µg/mL
MIC Streptococcus pneumoniae (GC 4565) (Streptococcus sp.; [1]): <0.12 µg/mL
MIC Streptococcus pyogenes (GC 4563) (Streptococcus sp.; [1]): <0.12 µg/mL
SMILES: CC(c1ccccc1)C1NC(=O)CNC(=O)C(CO)NC(=O)C(C(O)C2CNC(=N)N2C2OC(CO)C(O)C(O)C2O)NC(=O)C(C(O)C2CNC(=N)N2)NC(=O)C(Cc2ccc(OC3OC(CO)C(OC4OC5COC6(CC7CCC6(C)C7(C)C)OC5C(O)C4O)C(O)C3O)cc2)NC1=O (stereo not drawn) [Example 215, Cyclo[glycyl-β-methylphenylalanyl-O-[4-O-[4,6-O-(1,7,7-trimethylbicyclo[2.2.1]hept-2-ylidene)hexopyranosyl]hexopyranosyl]tyrosyl-3-(2-iminoimidazolidin-4-yl)seryl-3-(3-hexopyranosyl-2-iminoimidazolidin-4-yl)serylseryl]]
MIC Staphylococcus haemolyticus (GC 4546) (Staphylococcus sp.; strain GC 4546): 0.5 µg/mL (≈ 0.35 µM)
